Tests used:
Assay in all cases: viability relative to DMSO control (fraction); higher = less drug effect (more viable cells)
Conditions in all cases: 48 h
[1] = compound: CC(=O)c1c(C)c2cnc(Nc3ccc(N4CCNCC4)cn3)nc2n(C2CCCC2)c1=O [Palbociclib]
Method in brief: (§1)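 Using 384-well plates with compounds already plated at five concentrations, one well per concentration, 4 × 10^4 primary mononuclear tumour cells were added per well. Cells were Ficoll-isolated from blood or bone marrow or came from processed lymph node, fresh or cryopreserved. They were kept for 48 h at 37 °C and 5% CO2 in RPMI-1640 supplemented with penicillin/streptomycin, L-glutamine and human serum, and viability was read as CellTiter-Glo luminescence relative to the median of 16 inner DMSO wells.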

[2] = compound: CC1(C)CCC(CN2CCN(c3ccc(C(=O)NS(=O)(=O)c4ccc(NCC5CCOCC5)c([N+](=O)[O-])c4)c(Oc4cnc5[nH]ccc5c4)c3)CC2)=C(c2ccc(Cl)cc2)C1 [Venetoclax]
Method in brief: as §1

[3] = compound: CC1(C)CCC(c2ccc(Cl)cc2)=C(CN2CCN(c3ccc(C(=O)NS(=O)(=O)c4ccc(N[C@H](CCN5CCOCC5)CSc5ccccc5)c(S(=O)(=O)C(F)(F)F)c4)cc3)CC2)C1 [Navitoclax]
Method in brief: as §1

[4] = compound: CCN(CCCOc1ccc2c(Nc3cc(CC(=O)Nc4cccc(F)c4)[nH]n3)ncnc2c1)CCOP(=O)(O)O [Barasertib]
Method in brief: as §1

[5] = compound: CCN(c1cc(-c2ccc(CN3CCOCC3)cc2)cc(C(=O)NCc2c(C)cc(C)[nH]c2=O)c1C)C1CCOCC1 [EPZ-6438]
Method in brief: as §1

[6] = compound: CCNC(=O)C[C@@H]1N=C(c2ccc(Cl)cc2)c2cc(OC)ccc2-n2c(C)nnc21 [I-BET-762]
Method in brief: as §1

[7] = compound: CCS(=O)(=O)N1CCC([C@@H](C)n2c(C)c(C(=O)NCc3c(OC)cc(C)[nH]c3=O)c3ccccc32)CC1 [CPI-169]
Method in brief: as §1

[8] = compound: CCc1ccc(/C=C2/SC(=S)NC2=O)cc1
Method in brief: as §1

[9] = compound: C[C@H](NC(=O)CCC(F)(F)F)C(=O)N[C@@H]1C(=O)N(CCO)c2ncccc2-c2ccccc21
Method in brief: as §1

[10] = compound: C[C@H]1C[C@@H](n2c(Nc3ccc(OC(F)(F)F)cc3)nc3cc(CCC(=O)O)ccc32)CC(C)(C)C1
Method in brief: as §1

[11] = compound: O=C(/C=C\n1cnc(-c2cc(C(F)(F)F)cc(C(F)(F)F)c2)n1)NNc1cnccn1 [Selinexor]
Method in brief: as §1

[12] = compound: O=C(NO)c1cccc(C(=O)NCCc2ccccc2)c1
Method in brief: as §1

[13] = compound: O=C(Nc1nc2cccc(-c3ccc(CN4CCS(=O)(=O)CC4)cc3)n2n1)C1CC1 [Filgotinib]
Method in brief: as §1

[14] = compound: O=C1CCC(N2C(=O)c3ccccc3C2=O)C(=O)N1 [Thalidomide]
Method in brief: as §1

primary BL patient cells (S005)
viability ([1]; 0.024 µM): 0.948 | viability ([1]; 0.12 µM): 1.16 | viability ([1]; 0.6 µM): 0.873 | viability ([1]; 3 µM): 1.06 | viability ([1]; 15 µM): 0.825 | viability ([2]; 0.00064 µM): 0.989 | viability ([2]; 0.0032 µM): 0.904 | viability ([2]; 0.016 µM): 0.944 | viability ([2]; 0.08 µM): 0.982 | viability ([2]; 0.4 µM): 0.994 | viability ([3]; 0.0032 µM): 1.1 | viability ([3]; 0.016 µM): 0.999 | viability ([3]; 0.08 µM): 1.11 | viability ([3]; 0.4 µM): 1.06 | viability ([3]; 2 µM): 1.06 | viability ([4]; 0.0008 µM): 1.38 | viability ([4]; 0.004 µM): 1.33 | viability ([4]; 0.02 µM): 0.929 | viability ([4]; 0.1 µM): 0.856 | viability ([4]; 0.5 µM): 0.917 | viability ([5]; 0.024 µM): 1.15 | viability ([5]; 0.12 µM): 1.18 | viability ([5]; 0.6 µM): 1.04 | viability ([5]; 3 µM): 1.08 | viability ([5]; 15 µM): 0.967 | viability ([6]; 0.008 µM): 1.08 | viability ([6]; 0.04 µM): 0.956 | viability ([6]; 0.2 µM): 0.889 | viability ([6]; 1 µM): 0.822 | viability ([6]; 5 µM): 0.768 | viability ([7]; 0.024 µM): 1.04 | viability ([7]; 0.12 µM): 1.03 | viability ([7]; 0.6 µM): 1.12 | viability ([7]; 3 µM): 1.07 | viability ([7]; 15 µM): 1.1 | viability ([8]; 0.024 µM): 0.918 | viability ([8]; 0.12 µM): 0.926 | viability ([8]; 0.6 µM): 1.06 | viability ([8]; 3 µM): 0.961 | viability ([8]; 15 µM): 0.974 | viability ([9]; 0.016 µM): 1.03 | viability ([9]; 0.08 µM): 0.975 | viability ([9]; 0.4 µM): 0.916 | viability ([9]; 2 µM): 0.918 | viability ([9]; 10 µM): 0.695 | viability ([10]; 0.024 µM): 1.38 | viability ([10]; 0.12 µM): 1.01 | viability ([10]; 0.6 µM): 0.993 | viability ([10]; 3 µM): 1.45 | viability ([10]; 15 µM): 0.977 | viability ([11]; 0.008 µM): 0.977 | viability ([11]; 0.04 µM): 0.923 | viability ([11]; 0.2 µM): 0.928 | viability ([11]; 1 µM): 0.81 | viability ([11]; 5 µM): 0.743 | viability ([12]; 0.024 µM): 1.08 | viability ([12]; 0.12 µM): 1 | viability ([12]; 0.6 µM): 1.04 | viability ([12]; 3 µM): 1.04 | viability ([12]; 15 µM): 1.03 | viability ([13]; 0.024 µM): 0.996 | viability ([13]; 0.12 µM): 0.835 | viability ([13]; 0.6 µM): 0.971 | viability ([13]; 3 µM): 0.909 | viability ([13]; 15 µM): 0.469 | viability ([14]; 0.032 µM): 0.924 | viability ([14]; 0.16 µM): 0.966 | viability ([14]; 0.8 µM): 0.953 | viability ([14]; 4 µM): 0.98 | viability ([14]; 20 µM): 0.919

primary AML patient cells (S019)
viability ([1]; 0.024 µM): 0.997 | viability ([1]; 0.12 µM): 0.837 | viability ([1]; 0.6 µM): 0.925 | viability ([1]; 3 µM): 0.635 | viability ([1]; 15 µM): 0.286 | viability ([2]; 0.00064 µM): 1.13 | viability ([2]; 0.0032 µM): 0.91 | viability ([2]; 0.016 µM): 0.566 | viability ([2]; 0.08 µM): 0.342 | viability ([2]; 0.4 µM): 0.261 | viability ([3]; 0.0032 µM): 1.04 | viability ([3]; 0.016 µM): 1.02 | viability ([3]; 0.08 µM): 0.665 | viability ([3]; 0.4 µM): 0.257 | viability ([3]; 2 µM): 0.153 | viability ([4]; 0.0008 µM): 0.853 | viability ([4]; 0.004 µM): 0.832 | viability ([4]; 0.02 µM): 1.04 | viability ([4]; 0.1 µM): 0.939 | viability ([4]; 0.5 µM): 1.07 | viability ([5]; 0.024 µM): 1.03 | viability ([5]; 0.12 µM): 1.06 | viability ([5]; 0.6 µM): 0.992 | viability ([5]; 3 µM): 1.04 | viability ([5]; 15 µM): 0.948 | viability ([6]; 0.008 µM): 1 | viability ([6]; 0.04 µM): 0.964 | viability ([6]; 0.2 µM): 0.879 | viability ([6]; 1 µM): 0.929 | viability ([6]; 5 µM): 0.793 | viability ([7]; 0.024 µM): 1.01 | viability ([7]; 0.12 µM): 1.03 | viability ([7]; 0.6 µM): 1.04 | viability ([7]; 3 µM): 1.07 | viability ([7]; 15 µM): 1.04 | viability ([8]; 0.024 µM): 0.959 | viability ([8]; 0.12 µM): 0.973 | viability ([8]; 0.6 µM): 1.08 | viability ([8]; 3 µM): 1.01 | viability ([8]; 15 µM): 0.996 | viability ([9]; 0.016 µM): 1.32 | viability ([9]; 0.08 µM): 1.33 | viability ([9]; 0.4 µM): 1.16 | viability ([9]; 2 µM): 1.24 | viability ([9]; 10 µM): 1.05 | viability ([10]; 0.024 µM): 0.782 | viability ([10]; 0.12 µM): 1.39 | viability ([10]; 0.6 µM): 1.15 | viability ([10]; 3 µM): 0.854 | viability ([10]; 15 µM): 1.11 | viability ([11]; 0.008 µM): 0.888 | viability ([11]; 0.04 µM): 0.843 | viability ([11]; 0.2 µM): 0.785 | viability ([11]; 1 µM): 0.774 | viability ([11]; 5 µM): 0.681 | viability ([12]; 0.024 µM): 1.04 | viability ([12]; 0.12 µM): 1.03 | viability ([12]; 0.6 µM): 0.977 | viability ([12]; 3 µM): 0.995 | viability ([12]; 15 µM): 1.05 | viability ([13]; 0.024 µM): 0.986 | viability ([13]; 0.12 µM): 1.01 | viability ([13]; 0.6 µM): 0.909 | viability ([13]; 3 µM): 0.847 | viability ([13]; 15 µM): 0.608 | viability ([14]; 0.032 µM): 0.924 | viability ([14]; 0.16 µM): 0.844 | viability ([14]; 0.8 µM): 0.884 | viability ([14]; 4 µM): 0.938 | viability ([14]; 20 µM): 0.903

From the supplement of paper PMC10733146
